What was measured:
Assay in all cases: cells
MOLT-13 = format: functional, cell-based; conditions: Homo sapiens;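 note: IC50 for suppression of MOLT-13 cell growth, read out with a cell viability assay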
Description: SANGER: Inhibition of human MOLT-13 cell growth in a cell viability assay.

SK-N-AS = format: functional, cell-based, Homo sapiens; conditions: Homo sapiens, SK-N-AS;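 note: growth inhibition of human SK-N-AS cells, measured with a cell viability assay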
Description: SANGER: Inhibition of human SK-N-AS cell growth in a cell viability assay.

D-423MG = format: functional, cell-based; conditions: Homo sapiens
Description: SANGER: Inhibition of human D-423MG cell growth in a cell viability assay.

L-428 = format: functional, cell-based; conditions: Homo sapiens
Description: SANGER: Inhibition of human L-428 cell growth in a cell viability assay.

TGBC11TKB = format: functional, cell-based; conditions: Homo sapiens;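 note: growth inhibition of human TGBC11TKB cells, measured by a cell viability assay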
Description: SANGER: Inhibition of human TGBC11TKB cell growth in a cell viability assay.

HCT-116 = format: functional, cell-based, Homo sapiens; conditions: Homo sapiens, HCT-116
Description: SANGER: Inhibition of human HCT-116 cell growth in a cell viability assay.

MC-IXC = format: functional, cell-based, Homo sapiens; conditions: Homo sapiens, MC-IXC;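 note: growth inhibition of MC-IXC cells, read out with a cell viability assay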
Description: SANGER: Inhibition of human MC-IXC cell growth in a cell viability assay.

NY = format: functional, cell-based, Homo sapiens; conditions: Homo sapiens, NY
Description: SANGER: Inhibition of human NY cell growth in a cell viability assay.

LU-99A = format: functional, cell-based, Homo sapiens; conditions: Homo sapiens, LU-99A;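 note: growth inhibition of LU-99A cells, read out with a cell viability assay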
Description: SANGER: Inhibition of human LU-99A cell growth in a cell viability assay.

HCT-15 = format: functional, cell-based, Homo sapiens; conditions: Homo sapiens, HCT-15;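 note: cell viability readout, IC50 reflecting suppression of HCT-15 cell growth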
Description: SANGER: Inhibition of human HCT-15 cell growth in a cell viability assay.

ECC10 = format: functional, cell-based; conditions: Homo sapiens;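 note: growth inhibition of ECC10 cells, read out by a cell viability assay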
Description: SANGER: Inhibition of human ECC10 cell growth in a cell viability assay.

NCI-H1048 = format: functional, cell-based; conditions: Homo sapiens;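 note: growth inhibition of human NCI-H1048 cells, read out with a cell viability assay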
Description: SANGER: Inhibition of human NCI-H1048 cell growth in a cell viability assay.

BE-13 = format: functional, cell-based; conditions: Homo sapiens;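 note: growth inhibition of human BE-13 cells, measured with a cell viability assay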
Description: SANGER: Inhibition of human BE-13 cell growth in a cell viability assay.

CFPAC-1 = format: functional, cell-based; conditions: Homo sapiens;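 note: cell viability readout used to gauge suppression of CFPAC-1 cell proliferation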
Description: SANGER: Inhibition of human CFPAC-1 cell growth in a cell viability assay.

LNCaP-Clone-FGC = format: functional, cell-based, Homo sapiens; conditions: Homo sapiens, LNCaP-Clone-FGC
Description: SANGER: Inhibition of human LNCaP-Clone-FGC cell growth in a cell viability assay.

RPMI-8226 = format: functional, cell-based; conditions: Homo sapiens
Description: SANGER: Inhibition of human RPMI-8226 cell growth in a cell viability assay.

NCI-H1666 = format: functional, cell-based; conditions: Homo sapiens;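 note: growth inhibition of the cell line, read out with a cell viability assay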
Description: SANGER: Inhibition of human NCI-H1666 cell growth in a cell viability assay.

SBC-1 = format: functional, cell-based; conditions: Homo sapiens;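 note: cell viability assay measuring growth inhibition of the SBC-1 cell line, IC50 being the concentration that halves growth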
Description: SANGER: Inhibition of human SBC-1 cell growth in a cell viability assay.

SW900 = format: functional, cell-based; conditions: Homo sapiens;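 note: IC50 is the concentration that inhibits SW900 cell growth, measured by a cell viability assay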
Description: SANGER: Inhibition of human SW900 cell growth in a cell viability assay.

HCC70 = format: functional, cell-based, Homo sapiens; conditions: Homo sapiens, HCC70;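 note: cell viability assay measuring how strongly the compound suppresses proliferation of HCC70 cells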
Description: SANGER: Inhibition of human HCC70 cell growth in a cell viability assay.

SW756 = format: functional, cell-based, Homo sapiens; conditions: Homo sapiens, SW756;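 note: growth inhibition of human SW756 cells, read out with a cell viability assay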
Description: SANGER: Inhibition of human SW756 cell growth in a cell viability assay.

LS-123 = format: functional, cell-based, Homo sapiens; conditions: Homo sapiens, LS-123
Description: SANGER: Inhibition of human LS-123 cell growth in a cell viability assay.

MS-1 = format: functional, cell-based; conditions: Homo sapiens;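 note: growth inhibition of MS-1 cells, read out by cell viability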
Description: SANGER: Inhibition of human MS-1 cell growth in a cell viability assay.

PANC-08-13 = format: functional, cell-based, Homo sapiens; conditions: Homo sapiens, PANC-08-13;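 note: cell growth inhibition, measured with a cell viability assay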
Description: SANGER: Inhibition of human PANC-08-13 cell growth in a cell viability assay.

KU-19-19 = format: functional, cell-based, Homo sapiens; conditions: Homo sapiens, KU-19-19
Description: SANGER: Inhibition of human KU-19-19 cell growth in a cell viability assay.

LB831-BLC = format: functional, cell-based, Homo sapiens; conditions: Homo sapiens, LB831-BLC;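 note: growth inhibition of LB831-BLC cells, read out with a cell viability assay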
Description: SANGER: Inhibition of human LB831-BLC cell growth in a cell viability assay.

RD = format: functional, cell-based, Homo sapiens; conditions: Homo sapiens, RD
Description: SANGER: Inhibition of human RD cell growth in a cell viability assay.

H9 = format: functional, cell-based; conditions: Homo sapiens
Description: SANGER: Inhibition of human H9 cell growth in a cell viability assay.

GCIY = format: functional, cell-based, Homo sapiens; conditions: Homo sapiens, GCIY;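 note: growth inhibition of the human GCIY cell line, read out by a cell viability assay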
Description: SANGER: Inhibition of human GCIY cell growth in a cell viability assay.

MZ1-PC = format: functional, cell-based, Homo sapiens; conditions: Homo sapiens, MZ1-PC;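 note: cell viability assay measuring growth inhibition of human MZ1-PC cells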
Description: SANGER: Inhibition of human MZ1-PC cell growth in a cell viability assay.

SJRH30 = format: functional, cell-based; conditions: Homo sapiens;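 note: growth inhibition of human SJRH30 cells, read out with a cell viability assay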
Description: SANGER: Inhibition of human SJRH30 cell growth in a cell viability assay.

NCI-H2228 = format: functional, cell-based, Homo sapiens; conditions: Homo sapiens, NCI-H2228;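 note: growth inhibition of human NCI-H2228 cells, read out by a cell viability assay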
Description: SANGER: Inhibition of human NCI-H2228 cell growth in a cell viability assay.

NCI-H2029 = format: functional, cell-based; conditions: Homo sapiens;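 note: Read-out is a viability assay on the cultured cells, and IC50 is the concentration that suppresses cell growth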
Description: SANGER: Inhibition of human NCI-H2029 cell growth in a cell viability assay.

Measured: IC50

CC(=O)O[C@@H]1[C@@H](OC(C)=O)[C@@H](O)[C@H](Oc2c(-c3ccc(O)cc3)oc3cc(O)cc(O)c3c2=O)O[C@H]1C
> 10 µM: all assays above

O=C(NOCC1CC1)c1ccc(F)c(F)c1Nc1ccc(I)cc1Cl [CI-1040]
7.34 µM: BE-13
1.08 µM: SK-N-AS
8.88 µM: MS-1
3.08 µM: D-423MG
3.17 µM: KU-19-19
8.03 µM: ECC10
6.08 µM: NCI-H1666
5.07 µM: MOLT-13
8.87 µM: SBC-1
2.45 µM: RD
5.66 µM: LU-99A
2.02 µM: HCC70
0.0228 µM: H9
6.81 µM: HCT-116
> 10 µM: all other assays above

From ChEMBL document CHEMBL1201861, “Genomics of Drug Sensitity in Cancer screening data, Wellcome Trust Sanger Institute”
